According to patent US10772882B2, “Pulmonary hypertension preventative or therapeutic agent containing crude drug” (TOHOKU UNIVERSITY, priority 2016, dated 2020):

Columns and labels:
[1] = system: pulmonary artery smooth muscles derived from patients with pulmonary arterial hypertension; assay: MTT assay of cell proliferation of pulmonary artery smooth muscle cells from patients; assay type: cell-based, human; conditions: for suppressive effect on proliferation of pulmonary artery smooth muscle cells: final concentration 5 μM, same method as Example 1, data not shown
Excerpt: The preventive or therapeutic agent for pulmonary hypertension of the present invention prevents or treats and ameliorates pulmonary hypertension by at least suppressing excessive proliferation of pulmonary artery smooth muscle cells. Accordingly, the present invention also provides a suppressor for excessive proliferation of pulmonary artery smooth muscle cells containing emetine or a salt thereof. […] However, emetine serving as the active ingredient of the present invention is a compound quite different in structure from IMD-0354 described above. Further, the inventors of the present invention examined N-p-tosyl-L-phenylalanine chloromethyl ketone, caffeic acid phenethyl ester, and Nα-p-tosyl-L-lysine chloromethyl ketone hydrochloride serving as compounds known to have NF-κB-inhibiting actions for their suppressive effects on the proliferation of pulmonary artery smooth muscle cells derived from patients with pulmonary hypertension by the same method as that described in Example 1 to be described later except that each of these compounds was added so that its final concentration was 5 μM. […] Also from such viewpoints, the suppressive effect of emetine on excessive proliferation of pulmonary artery smooth muscle cells and the preventive or therapeutic effect of emetine on pulmonary hypertension in the present invention are unpredictable from the related art. The active ingredient, dosage form, dose, and the like of the suppressor for excessive proliferation of pulmonary artery smooth muscle cells are the same as those of the preventive or therapeutic agent for pulmonary hypertension.
Pulmonary artery smooth muscles derived from patients with pulmonary arterial hypertension were treated with 1 nmol/L to 5 μmol/L emetine solutions (the emetine solutions were prepared with distilled water), and were cultured for 0 hours and 48 hours, followed by an MTT assay to assess cell proliferation rates. Specifically, smooth muscle cells were seeded in 96-well plates at 5,000 cells/well, and 24 hours after the seeding, emetine was added so that its final concentrations were adjusted to from 1 nmol/L to 5 μmol/L. The results are shown in FIG. 1.

[2] = system: pulmonary artery smooth muscle cells; conditions: Non-patent Literature 5; cited from earlier work
[3] = system: transcription factor NF-κB; conditions: Non-patent Literature 4 and 5; cited from earlier work
[4] = system: monocrotaline-induced pulmonary hypertension model; assay: monocrotaline-induced pulmonary hypertension model; assay type: in vivo, rats (SD rats); conditions: 0.01 mg/kg or 0.05 mg/kg orally daily for 3 weeks after 60 mg/kg monocrotaline s.c.; vs control group; FIG. 2
Description: In vivo tests using pulmonary hypertension animal models were performed on emetine. Specifically, first, the influence of emetine on a monocrotaline-induced pulmonary hypertension model was investigated. A monocrotaline solution used for the production of the pulmonary hypertension model was prepared by dissolving monocrotaline with 1 mol/L hydrochloric acid and then adjusting the pH to 7.4 through titration with 1 mol/L sodium hydroxide using a pH meter. An emetine solution was prepared with distilled water. The monocrotaline-induced pulmonary hypertension model was produced by subcutaneously injecting 6-week-old rats (SD rats, n=13) with 60 mg/kg monocrotaline. After the subcutaneous injection with monocrotaline, the rats were orally administered 0.01 mg/kg or 0.05 mg/kg emetine daily for 3 weeks. A vehicle group was sacrificed 3 weeks after the administration of distilled water to measure right ventricular systolic pressure with Mikro-Tip Catheter transducers 2F (Millar). In addition, after formalin fixation, the right ventricle was removed from the left ventricle to measure a right ventricle/(left ventricle plus septum) weight ratio. Then, the extent of pulmonary hypertension was assessed on the basis of those results.

[5] = system: SU5416/Hypoxia model; assay: SU5416/Hypoxia pulmonary hypertension model; assay type: in vivo, rats (SD rats); conditions: 0.01 mg/kg or 0.05 mg/kg orally daily, week 8 to week 11 after SU5416; vs control group; FIG. 3
Description: In addition, an in vivo test using an SU5416/Hypoxia model was also performed. Specifically, first, an SU5416 (semaxanib) solution used for the production of the model was prepared by dissolving SU5416 using carboxy methyl cellulose (CMC). An emetine solution was prepared in the same manner as described above.
Six-week-old rats (SD rats, n=9) were administered 20 mg/kg SU5416 and then bred in a hypoxic chamber using a hypoxicator to be exposed to hypoxia (oxygen concentration: from 8% to 12%) for 3 weeks and then to normoxia. Then, the rats were orally administered 0.01 mg/kg or 0.05 mg/kg emetine daily for a period from the first day of week 8 after the SU5416 administration to the final day of week 11, and were sacrificed on the final day of week 11. Then, the extent of pulmonary hypertension was assessed in the same manner as in the monocrotaline-induced pulmonary hypertension model.

With `Cc1ccc(S(=O)(=O)N[C@@H](Cc2ccccc2)C(=O)CCl)cc1` [N-p-tosyl-L-phenylalanine chloromethyl ketone] the “suppressive effect on proliferation of pulmonary artery smooth muscle cells” value (from here on “suppressive effect on proliferation”) [1] was “not sufficiently suppressed”.

With `Cc1ccc(S(=O)(=O)N[C@@H](CCCCN)C(=O)CCl)cc1.Cl` [Nα-p-tosyl-L-lysine chloromethyl ketone hydrochloride] the “suppressive effect on proliferation” value [1] was “not sufficiently suppressed”.

For `O=C(/C=C/c1ccc(O)c(O)c1)OCCc1ccccc1` [caffeic acid phenethyl ester], the “suppressive effect on proliferation” value [1] was “not sufficiently suppressed”.

For `O=C(Nc1cc(C(F)(F)F)cc(C(F)(F)F)c1)c1cc(Cl)ccc1O` [IMD-0354, N-[3,5-bis(trifluoromethyl)phenyl]-5-chloro-2-hydroxybenzamide], the “proliferation of pulmonary artery smooth muscle cells” value [2] is listed as “suppresses the proliferation of pulmonary artery smooth muscle cells” and the NF-κB inhibition [3] is listed as “has an NF-κB-inhibiting action”.

For `CC[C@H]1CN2CCc3cc(OC)c(OC)cc3[C@@H]2C[C@@H]1C[C@H]1NCCc2cc(OC)c(OC)cc21` [emetine], the NF-κB inhibition [3] is listed as “known to inhibit a transcription factor NF-κB”, the “right ventricle/(left ventricle plus septum) weight ratio” value [4] is listed as “suppressed” and the “right ventricular systolic pressure” value [4] is listed as “suppressed”. For the same compound, the “cell proliferation rate (MTT assay)” value ([1]; emetine 1 nmol/L to 5 μmol/L, cultured 48 hours, FIG. 1) was “suppressed proliferation of the pulmonary artery smooth muscles derived from patients with pulmonary arterial hypertension in a concentration-dependent manner”, the “right ventricle/(left ventricle plus septum) weight ratio” value [5] was “alleviated” and the “right ventricular systolic pressure” value [5] was “alleviated”.
